Data taken from US20250059171A1 (Hoffmann-La Roche Inc., priority 2021, published 2025).

What was measured:
SARS-CoV 3CLpro = SARS-CoV 3CLpro (Severe acute respiratory syndrome coronavirus, UniProt P0C6X7); assay: biochemical
MERS-CoV 3CLpro = MERS-CoV 3CLpro (Middle East respiratory syndrome-related coronavirus, UniProt K9N7C7); assay: biochemical
HCoV-229E 3CLpro = HCoV-229E 3CLpro (Human coronavirus 229E, UniProt P0C6X1); assay: HCoV-229E 3CLpro inhibition assay (FRET); type: biochemical
SARS-CoV-2 3CLpro = SARS-CoV-2 3CLpro (Severe acute respiratory syndrome coronavirus 2, UniProt P0DTD1); assay: biochemical

MERS-CoV 3CLpro, sequence (K9N7C7 3248-3553): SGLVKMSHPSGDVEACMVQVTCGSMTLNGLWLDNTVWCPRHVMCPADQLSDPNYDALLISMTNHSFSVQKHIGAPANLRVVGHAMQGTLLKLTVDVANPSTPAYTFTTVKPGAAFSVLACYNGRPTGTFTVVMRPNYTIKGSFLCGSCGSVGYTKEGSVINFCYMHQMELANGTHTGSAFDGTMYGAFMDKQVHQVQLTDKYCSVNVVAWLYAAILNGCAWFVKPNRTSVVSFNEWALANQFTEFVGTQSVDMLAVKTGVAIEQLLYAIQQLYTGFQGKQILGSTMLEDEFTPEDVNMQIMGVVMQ
HCoV-229E 3CLpro, sequence (P0C6X1 2966-3267): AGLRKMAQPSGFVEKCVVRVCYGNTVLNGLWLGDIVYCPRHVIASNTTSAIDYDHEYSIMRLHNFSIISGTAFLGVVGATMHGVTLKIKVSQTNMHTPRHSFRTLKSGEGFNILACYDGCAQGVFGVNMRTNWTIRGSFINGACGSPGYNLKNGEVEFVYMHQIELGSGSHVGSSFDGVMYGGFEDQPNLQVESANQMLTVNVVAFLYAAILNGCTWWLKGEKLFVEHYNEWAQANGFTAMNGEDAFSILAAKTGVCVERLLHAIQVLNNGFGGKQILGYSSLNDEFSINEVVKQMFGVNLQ

SMILES | IC50 (SARS-CoV 3CLpro) [nM] | IC50 (MERS-CoV 3CLpro) [nM] | IC50 (HCoV-229E 3CLpro) [nM] | IC50 (SARS-CoV-2 3CLpro) [nM]
CC[C@H](C)[C@H](NC(=O)C(F)F)C(=O)N1C[C@H]2[C@@H]([C@H]1C(=O)NN(C[C@@H]1CCNC1=O)C(=O)[C@H](F)Cl)C2(C)C [Example 51, N-[(1S,2S)-1-[(1R,2S,5S)-2-[[[(2R)-2-chloro-2-fluoro-acetyl]-[[(3S)-2-oxopyrrolidin-3-yl]methyl]amino]carbamoyl]-6,6-dimethyl-3-azabicyclo[3.1.0]hexane-3-carbonyl]-2-methyl-butyl]-2,2-difluoro-acetamide] | 10 | 59 | 21 | 7
CC[C@H](C)[C@H](NC(=O)C(C)(C)C)C(=O)N1C[C@H]2[C@@H]([C@H]1C(=O)NN(C[C@@H]1CCNC1=O)C(=O)[C@H](F)Cl)C2(C)C [Example 52, N-[(1S,2S)-1-[(1R,2S,5S)-2-[[[(2R)-2-chloro-2-fluoro-acetyl]-[[(3S)-2-oxopyrrolidin-3-yl]methyl]amino]carbamoyl]-6,6-dimethyl-3-azabicyclo[3.1.0]hexane-3-carbonyl]-2-methyl-butyl]-2,2-dimethyl-propanamide] | 15 | 57 | 22 | 10
CC[C@H](C)[C@H](NC(=O)C(C)C)C(=O)N1C[C@H]2[C@@H]([C@H]1C(=O)NN(C[C@@H]1CCNC1=O)C(=O)[C@H](F)Cl)C2(C)C [Example 54, N-[(1S,2S)-1-[(1R,2S,5S)-2-[[[(2R)-2-chloro-2-fluoro-acetyl]-[[(3S)-2-oxopyrrolidin-3-yl]methyl]amino]carbamoyl]-6,6-dimethyl-3-azabicyclo[3.1.0]hexane-3-carbonyl]-2-methyl-butyl]-2-methyl-propanamide] | 12 | 56 | 24 | 9
CC[C@H](C)[C@H](NC(=O)C(C)(F)F)C(=O)N1C[C@H]2[C@@H]([C@H]1C(=O)NN(C[C@@H]1CCNC1=O)C(=O)[C@H](F)Cl)C2(C)C [Example 55, N-[(1S,2S)-1-[(1R,2S,5S)-2-[[[(2R)-2-chloro-2-fluoro-acetyl]-[[(3S)-2-oxopyrrolidin-3-yl]methyl]amino]carbamoyl]-6,6-dimethyl-3-azabicyclo[3.1.0]hexane-3-carbonyl]-2-methyl-butyl]-2,2-difluoro-propanamide] | 14 | 56 | 21 | 8
CC[C@H](C)[C@H](NC(=O)C1CC1)C(=O)N1C[C@H]2[C@@H]([C@H]1C(=O)NN(C[C@@H]1CCNC1=O)C(=O)[C@H](F)Cl)C2(C)C [Example 57, N-[(1S,2S)-1-[(1R,2S,5S)-2-[[[(2R)-2-chloro-2-fluoro-acetyl]-[[(3S)-2-oxopyrrolidin-3-yl]methyl]amino]carbamoyl]-6,6-dimethyl-3-azabicyclo[3.1.0]hexane-3-carbonyl]-2-methyl-butyl]cyclopropanecarboxamide] | 13 | 62 | 20 | 11
CC[C@H](C)[C@H](NC(=O)C1CC(F)(F)C1)C(=O)N1C[C@H]2[C@@H]([C@H]1C(=O)NN(C[C@@H]1CCNC1=O)C(=O)[C@H](F)Cl)C2(C)C [Example 58, N-[(1S,2S)-1-[(1R,2S,5S)-2-[[[(2R)-2-chloro-2-fluoro-acetyl]-[[(3S)-2-oxopyrrolidin-3-yl]methyl]amino]carbamoyl]-6,6-dimethyl-3-azabicyclo[3.1.0]hexane-3-carbonyl]-2-methyl-butyl]-3,3-difluoro-cyclobutanecarboxamide] | 15 | 73 | 26 | 11
CC[C@H](C)[C@H](NC(=O)C1(F)CC1)C(=O)N1C[C@H]2[C@@H]([C@H]1C(=O)NN(C[C@@H]1CCNC1=O)C(=O)[C@H](F)Cl)C2(C)C [Example 59, N-[(1S,2S)-1-[(1R,2S,5S)-2-[[[(2R)-2-chloro-2-fluoro-acetyl]-[[(3S)-2-oxopyrrolidin-3-yl]methyl]amino]carbamoyl]-6,6-dimethyl-3-azabicyclo[3.1.0]hexane-3-carbonyl]-2-methyl-butyl]-1-fluoro-cyclopropanecarboxamide] | 17 | 62 | 21 | 7
CC[C@H](C)[C@H](NC(=O)C1(C)CC1)C(=O)N1C[C@H]2[C@@H]([C@H]1C(=O)NN(C[C@@H]1CCNC1=O)C(=O)[C@H](F)Cl)C2(C)C [Example 60, N-[(1S,2S)-1-[(1R,2S,5S)-2-[[[(2R)-2-chloro-2-fluoro-acetyl]-[[(3S)-2-oxopyrrolidin-3-yl]methyl]amino]carbamoyl]-6,6-dimethyl-3-azabicyclo[3.1.0]hexane-3-carbonyl]-2-methyl-butyl]-1-methyl-cyclopropanecarboxamide] | 9 | 47 | 19 | 10
CC[C@H](C)[C@H](NC(=O)C(Cl)Cl)C(=O)N1C[C@H]2[C@@H]([C@H]1C(=O)NN(C[C@@H]1CCNC1=O)C(=O)[C@H](F)Cl)C2(C)C [Example 61, 2,2-dichloro-N-[(1S,2S)-1-[(1R,2S,5S)-2-[[[(2R)-2-chloro-2-fluoro-acetyl]-[[(3S)-2-oxopyrrolidin-3-yl]methyl]amino]carbamoyl]-6,6-dimethyl-3-azabicyclo[3.1.0]hexane-3-carbonyl]-2-methyl-butyl]acetamide] | 11 | 121 | 30 | 8
CC[C@H](C)[C@H](NC(=O)C(F)(F)C(F)(F)F)C(=O)N1C[C@H]2[C@@H]([C@H]1C(=O)NN(C[C@@H]1CCNC1=O)C(=O)[C@H](F)Cl)C2(C)C [Example 62, N-[(1S,2S)-1-[(1R,2S,5S)-2-[[[(2R)-2-chloro-2-fluoro-acetyl]-[[(3S)-2-oxopyrrolidin-3-yl]methyl]amino]carbamoyl]-6,6-dimethyl-3-azabicyclo[3.1.0]hexane-3-carbonyl]-2-methyl-butyl]-2,2,3,3,3-pentafluoro-propanamide] | 10 | 43 | 17 | 8
CC[C@H](C)[C@H](NC(=O)C(F)(F)F)C(=O)N1C[C@H]2[C@@H]([C@H]1C(=O)NN(C[C@@H]1CCNC1=O)C(=O)[C@H](F)Cl)C2(C)C [Example 63, N-[(1S,2S)-1-[(1R,2S,5S)-2-[[[(2R)-2-chloro-2-fluoro-acetyl]-[[(3S)-2-oxopyrrolidin-3-yl]methyl]amino]carbamoyl]-6,6-dimethyl-3-azabicyclo[3.1.0]hexane-3-carbonyl]-2-methyl-butyl]-2,2,2-trifluoro-acetamide] | 11 | 60 | 18 | 9
CC[C@@H](C)[C@H](NC(=O)C(F)(F)F)C(=O)N1C[C@H]2[C@@H]([C@H]1C(=O)NN(C[C@@H]1CCNC1=O)C(=O)[C@H](F)Cl)C2(C)C [Example 64, N-[(1S,2R)-1-[(1R,2S,5S)-2-[[[(2R)-2-chloro-2-fluoro-acetyl]-[[(3S)-2-oxopyrrolidin-3-yl]methyl]amino]carbamoyl]-6,6-dimethyl-3-azabicyclo[3.1.0]hexane-3-carbonyl]-2-methyl-butyl]-2,2,2-trifluoro-acetamide] | 12 | 71 | 20 | 10
